In the SangsterLogP compilation:

test: method code SF-HPLC, from DOI: 10.1016/j.ejmech.2014.10.073, PMID: 25462263; settings: pH 7.4

logD	Structure (SMILES)
2.83	CCN(CC)C(=O)COc1ccc(CC(=O)OCCC(F)(F)F)c(OC)c1F
2.59	CCOc1cc(CC(=O)OC(C)C)c(F)cc1OCC(=O)N(CC)CC
3.1	CCOc1cc(CC(=O)OCCC(F)(F)F)cc(F)c1OCC(=O)N(CC)CC
2.95	CCCOc1cc(CC(=O)OC(C)C)c(F)cc1OCC(=O)N(CC)CC
2.49	CCN(CC)C(=O)COc1cc(F)c(CC(=O)OCC(F)(F)F)cc1OC
2.19	CCN(CC)C(=O)COc1cc(F)c(CC(=O)OC(C)C)cc1OC
3.06	CCOc1cc(CC(=O)OCCC(F)(F)F)c(F)cc1OCC(=O)N(CC)CC
2.72	CCCOC(=O)Cc1cc(OCC)c(OCC(=O)N(CC)CC)cc1F
2.07	CCOC(=O)Cc1cc(OC)c(OCC(=O)N(CC)CC)cc1F
2.51	CCN(CC)C(=O)COc1c(F)cc(CC(=O)OCC(F)(F)F)cc1OC
3.03	CCOc1cc(CC(=O)OCC(C)C)c(F)cc1OCC(=O)N(CC)CC
2.57	CCOC(=O)Cc1cc(OCC)c(OCC(=O)N(CC)CC)cc1F
2.36	CCCOC(=O)Cc1cc(OC)c(OCC(=O)N(CC)CC)cc1F
2.9	CCOc1cc(CC(=O)OCC(F)(F)F)c(F)cc1OCC(=O)N(CC)CC
2.29	CCOC(=O)Cc1ccc(OCC(=O)N(CC)CC)c(F)c1OC
2.46	CCOc1cc(CC(=O)OC(C)C)cc(F)c1OCC(=O)N(CC)CC
2.63	CCCOC(=O)Cc1cc(F)c(OCC(=O)N(CC)CC)c(OCC)c1
2.94	CCN(CC)C(=O)COc1cc(F)c(CC(=O)OCCC(F)(F)F)cc1OC
2.81	CCN(CC)C(=O)COc1c(F)cc(CC(=O)OCCC(F)(F)F)cc1OC
2.78	CCOc1cc(CC(=O)OCC(F)(F)F)cc(F)c1OCC(=O)N(CC)CC
2.41	CCOC(=O)Cc1cc(F)c(OCC(=O)N(CC)CC)c(OCC)c1

Structure (SMILES)	logD
CCCOC(=O)Cc1ccc(OCC(=O)N(CC)CC)c(OC)c1	2.6
CCCOC(=O)Cc1ccc(OCC(=O)N(CC)CC)c(OCC)c1	2.67
